The assay concerns PAN02 tumors. The source says:
All experimental use of animals was approved by the institutional animal care and use committee at Massachusetts General Hospital (MGH). All animal procedures abided by Public Health Service Policy on Humane Care of Laboratory Animals guidelines. All mice were bred and maintained MGH animal facility. Wild-type (WT) C57BL/6 mice were originally obtained from the Jackson Laboratory (The Jackson Laboratory, Bar Harbor, Me.) but were bred and maintained in a defined-flora colony. VEGFR1 tyrosine kinase-knockout mice (Flt1^TK−/−) of mixed C57BL/6 and SV129 strain background were originally developed at the University of Tokyo, Japan (Hiratsuka et al. Proc Natl Acad Sci USA (1998)95(16): 9349-54), and subsequently backcrossed to 99.9% C57BL/6 strain background (N10 equivalent) at Massachusetts General Hospital. Strain background was verified by the Jackson Laboratory's Speed Congenic Development Service. Genotyping was performed using polymerase chain reaction (PCR) analysis, as previously described (Hiratsuka et al.). Age-matched animals were used for all experiments. Mice were maintained on a 12-h light-dark cycle in a temperature-controlled barrier facility, with ad libitum access to food and acidified water, unless otherwise specified.
Mice (7-week old) were given either 10% or a 60% fat diet (D12450J and D12492, Research Diets, New Brunswick, N.J.) for 10 weeks, as described in Surwit et al. Metabolism (1995) 44(5):645-51. Body weight was monitored weekly and mice on a high-fat diet were defined as obese if their body weight was greater than 3 SD above the weight of the low fat diet group. At the end of the experiment, animals were weighed and euthanized, and the inguinal, perigonadal, and perineal fat pads were excised and weighed.
Glucose (GTT) and insulin tolerance tests (ITT) were performed after 8 and 9 weeks on the diet, respectively. Male mice were fasted for 16 hours (5pm-9am) for GTT, or 3 hours (9am-12pm) for ITT. Glucose (0.75 mg/g body weight) or insulin (1U/kg body weight) was administered by intraperitoneal (i.p.) injection, and tail blood was sampled at 0, 15, 30, 60, 90, and 120 minutes after administration of glucose/insulin. Blood glucose levels were measured using a Precision Xtra glucose meter (Abbott Diagnostics, Bedford, MA, USA). Glucose tolerance was evaluated calculating the area under the curve (AUC) for each mouse according to the following equation: […]
C57BL/6 VEGFR1(TK)−/− or WT obese and lean mice (after 10 weeks of diets) were used for tumor implantation studies. To induce pancreatic tumors, small (˜1 mm in diameter) chunks from a PAN02 pancreatic tumor source were grafted in the pancreata of obese and lean male mice. To induce breast tumors, 1×10^6 E0771 breast cancer cells were implanted in the mammary fat pad of lean and obese female mice. About 3 weeks after implantation, tumors were removed and tissue was assessed for immune cell infiltration, gene and protein expression of inflammatory, metabolic and major signaling pathway markers. Plasma was also collected and assessed for insulin, IGF-1, glucose and inflammatory markers (see below). Metastatic burden was assessed by counting lung metastasis in the E0771 breast cancer model, and evaluating abdominal wall invasion as well as mesentery metastasis in the PAN02 pancreatic cancer model. For abdominal wall invasion, animals were scored from 0 to 3 based on the extent of invasion: 0=no invasion, 1=less than 3 metastasis, 2=less than 6 metastasis, 3=more than 6 metastasis.
Immediately following excision, tumor tissue was snap frozen and stored in liquid nitrogen until used. Total RNA was extracted and relative gene expression was determined using RT2 Profiler PCR Arrays system (Qiagen) on a Stratagene Mx3000P QPCR System.

Setting [1] is: VEGFR-1 inhibition and metformin combined.

In the case of `CN(C)C(=N)N=C(N)N` [metformin, 3-(diaminomethylidene)-1,1-dimethylguanidine], under setting [1], the “pericyte coverage in tumors” value is “increased pericyte coverage”; the “vessel density in tumor and adipose tissue” value was “unaltered vessel density”. Also, under “combination group”, the tumor cell apoptosis entry was “increased tumor cell apoptosis” and the tumor cell proliferation entry was “decreased proliferation”. Moreover, the “fraction of perfused vessels” value (combination group compared to control or anti-VEGFR-1 alone) is listed as “significantly higher”. The “IR/IGF-1 signaling or AMPK/ACC activation” value (obese Flt1TK-/- mice with metformin) is “no changes”. Further, the plasma insulin result (obese Flt1TK-/- mice, 3 weeks after implantation of PAN02) is “prevented the increased insulin”. Under “obese mice, VEGFR-1 inhibition and metformin combined”, the PAN02 tumor weight result is given as “at its lowest”. Where the note is “obese tumors”, the “expression of major gluconeogenic genes downregulated by VEGFR-1 inhibition” value is recorded as “restored expression of major gluconeogenic genes”.
